# Reference: ChEMBL document CHEMBL3608266, “Active Constituents from Drynaria fortunei Rhizomes on the Attenuation of Aβ(25-35)-Induced Axonal Atrophy” (J Nat Prod, 2015)
# Calls of active or inactive are those of the source. The calls are words filed in the database; no cut-off is given here.
# System: Cortical neurone
# Assay: Induction of axonal regeneration in mouse cortical neurons assessed as reversal of Abeta (25 to 35)-induced axonal atrophy at 10 uM treated 3 days after Abeta (25 to 35) challenge and measured 4 days post compound dosing by pNF-H and MAP2 immunostaining method
# Format: functional
row,Compound,Activity
1,C[C@@H]1O[C@@H](O[C@H]2[C@H](Oc3cc(O)c4c(c3)O[C@H](c3ccc(O)c(O)c3)CC4=O)O[C@H](CO)[C@@H](O)[C@@H]2O)[C@H](O)[C@H](O)[C@H]1O,Active
2,O=C(O)/C=C/c1ccc(O[C@@H]2O[C@H](CO)[C@@H](O)[C@H](O)[C@H]2O)c(O)c1,Active
